*1 amine or outer side, *2 acyl side, *3 side chain or, on linkers, in order; H or OH if unused. Where a SMILES comes first, the peptide text is derived from it. Side-chain parts run from the residue outwards. [ ]: non-standard residue; d: D form. The star is where a group is joined. C20 diacid = O=C(O)CCCCCCCCCCCCCCCCCCC(=O)*; C18 diacid = O=C(O)CCCCCCCCCCCCCCCCC(=O)*; C16 diacid = O=C(O)CCCCCCCCCCCCCCC(=O)*; γGlu = O=C(O)[C@H](CCC(=O)[*:2])N[*:1]; NMeI = CC[C@H](C)[C@H](NC)C(=O)O; Lauroyl = CCCCCCCCCCCC(=O)*; Ac6c = NC1(C(=O)O)CCCCC1; Abu = CC[C@H](N)C(=O)O; Pentanoyl = CCCCC(=O)*; AEEA = NCCOCCOCC(=O)O; Aib = CC(C)(N)C(=O)O

The target of one experiment is T1, CFR1R receptor (Homo sapiens, UniProt P34998).
T1 construct: host or cells: CHO-K1 (clone 2)
T1 sequence (P34998 24-415): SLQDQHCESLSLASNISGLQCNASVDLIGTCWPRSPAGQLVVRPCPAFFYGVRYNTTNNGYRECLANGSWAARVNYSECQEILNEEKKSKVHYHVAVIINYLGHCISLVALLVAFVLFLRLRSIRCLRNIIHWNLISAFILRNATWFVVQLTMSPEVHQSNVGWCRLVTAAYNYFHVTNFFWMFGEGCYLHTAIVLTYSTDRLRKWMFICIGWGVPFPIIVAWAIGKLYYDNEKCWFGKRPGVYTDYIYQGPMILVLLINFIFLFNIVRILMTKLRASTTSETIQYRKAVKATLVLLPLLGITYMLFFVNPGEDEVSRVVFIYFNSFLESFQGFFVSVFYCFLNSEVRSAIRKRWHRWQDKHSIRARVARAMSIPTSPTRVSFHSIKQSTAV
Description: Activity at anti-target CFR1R receptor, cAMP assay in CRF1R-overexpression CHO-K1 cells. The conditions noted are these: 100% = Sauvagine at 100 nM; for EC50: cAMP. It counts as cell-based. In outline: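 The method mirrors that used with TeloHAEC cells. Here, thawed clone 2 cells seeded at 4000 cells/well are tested, and 100 nM Sauvagine sets the top of the activation scale.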

A further experiment deals with T2, human CRF2a receptor (Homo sapiens, UniProt Q13324).
T2 construct: expressed in transfected cells; host or cells: TeloHEAC cells
T2 sequence (Q13324 1-411): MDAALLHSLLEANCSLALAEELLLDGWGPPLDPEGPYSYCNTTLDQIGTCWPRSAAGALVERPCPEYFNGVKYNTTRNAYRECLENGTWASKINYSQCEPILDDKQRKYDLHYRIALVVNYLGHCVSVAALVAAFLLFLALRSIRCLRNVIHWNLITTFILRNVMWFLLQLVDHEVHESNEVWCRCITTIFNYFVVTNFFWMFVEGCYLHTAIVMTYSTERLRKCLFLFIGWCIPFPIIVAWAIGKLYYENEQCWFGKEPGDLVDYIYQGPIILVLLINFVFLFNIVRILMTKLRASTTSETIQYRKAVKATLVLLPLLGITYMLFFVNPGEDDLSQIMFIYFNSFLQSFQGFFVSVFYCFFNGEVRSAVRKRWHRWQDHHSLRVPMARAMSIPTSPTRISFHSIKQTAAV
Description: Activity at human CRF2a receptor, cAMP functional assay in TeloHEAC cells. The experiment is classed as cell-based. The conditions noted are these: TeloHEAC cells stably expressing human CRF2a receptor, relative to urocortin 2 (100 nM = 100%). An outline of the steps: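 TeloHEAC cells stably expressing human CRF2a (10000 cells/well, suspended in HBSS/20 mM HEPES with 2 mM IBMX) were exposed to compounds for 30 min at 37 °C. cAMP was read as the 665/620 nm fluorescence ratio after 1 h at room temperature. EC50 was derived relative to 100 nM urocortin 2, set as 100%.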

What is called EC50 is the concentration at which the effect is half-maximal. Lower therefore signals greater potency. With `CC[C@H](C)[C@H](NC(C)=O)C(=O)N[C@H](C(=O)N[C@@H](CC(C)C)C(=O)N[C@@H](CO)C(=O)N[C@@H](CC(C)C)C(=O)N[C@@H](CC(=O)O)C(=O)N[C@@H](C(=O)N1CCC[C@H]1C(=O)N[C@H](C(=O)N[C@@H](CCCCN)C(=O)N[C@@H](CC(C)C)C(=O)N[C@@H](CCCCNC(=O)CC[C@H](NC(=O)CCCCCCCCCCCCCCCCCCC(=O)O)C(=O)O)C(=O)N[C@@H](CCCCN)C(=O)N[C@H](C(=O)N[C@@H](CC(C)C)C(=O)N[C@@H](CC(C)C)C(=O)N[C@@H](CCC(=O)O)C(=O)N[C@@H](CCC(N)=O)C(=O)N[C@@H](CCC(=O)O)C(=O)N[C@@H](C)C(=O)N[C@@H](CCC(N)=O)C(=O)N[C@@H](CCCCN)C(=O)N[C@@H](CCCCN)C(=O)N[C@@H](CCC(N)=O)C(=O)N[C@@H](CCCNC(=N)N)C(=O)N[C@@H](CCC(=O)O)C(=O)N[C@@H](CCC(N)=O)C(=O)N[C@@H](C)C(=O)N[C@@H](CCC(=O)O)C(=O)N[C@H](C(=O)N[C@@H](CC(N)=O)C(=O)NC(C)(C)C(=O)N[C@@H](CCC(N)=O)C(=O)N[C@H](C(=O)N[C@@H](CC(C)C)C(=O)N[C@@H](C)C(=O)N[C@@H](CCC(N)=O)C(=O)N[C@H](C(N)=O)C(C)C)[C@@H](C)CC)[C@@H](C)O)[C@@H](C)CC)[C@@H](C)CC)C(C)C)C(C)C` [compound 211] (Ac-IVLSLD[dV]PIKLK([γGlu-C20 diacid])KILLEQEAQKKQREQAETN[Aib]QILAQV-NH2), at CFR1R receptor, the “Emax (% I)” value turned out to be 73 % I. Also, on human CRF2a receptor, a half-maximal response (EC50) required 0.15 nM.
Take `CCCCCCCCCCCC(=O)N[C@H](C(=O)N[C@@H](CC(C)C)C(=O)N[C@@H](CO)C(=O)N[C@@H](CC(C)C)C(=O)N[C@@H](CC(=O)O)C(=O)N[C@@H](C(=O)N1CCC[C@H]1C(=O)N[C@H](C(=O)N[C@@H](CCCCN)C(=O)N[C@@H](CC(C)C)C(=O)N[C@@H](CCCCNC(=O)CC[C@H](NC(=O)CCCCCCCCCCCCCCCCCCC(=O)O)C(=O)O)C(=O)N[C@@H](CCCCN)C(=O)N[C@H](C(=O)N[C@@H](CC(C)C)C(=O)N[C@@H](CC(C)C)C(=O)N[C@@H](CCC(=O)O)C(=O)N[C@@H](CCC(N)=O)C(=O)N[C@@H](CCC(=O)O)C(=O)N[C@@H](CCCCN)C(=O)N[C@@H](CCC(N)=O)C(=O)N[C@@H](CCCCN)C(=O)N[C@@H](CCCCN)C(=O)N[C@@H](CCC(N)=O)C(=O)N[C@@H](CCCNC(=N)N)C(=O)N[C@@H](CCC(=O)O)C(=O)N[C@@H](CCC(N)=O)C(=O)N[C@@H](C)C(=O)N[C@@H](CCC(=O)O)C(=O)N[C@H](C(=O)N[C@@H](CC(N)=O)C(=O)NC(C)(C)C(=O)N[C@@H](CCC(N)=O)C(=O)N[C@H](C(=O)N[C@@H](CC(C)C)C(=O)N[C@@H](C)C(=O)N[C@@H](CCC(N)=O)C(=O)N[C@H](C(N)=O)C(C)C)[C@@H](C)CC)[C@@H](C)O)[C@@H](C)CC)[C@@H](C)CC)C(C)C)C(C)C` [compound 224] (Lauroyl-VLSLD[dV]PIKLK([γGlu-C20 diacid])KILLEQEKQKKQREQAETN[Aib]QILAQV-NH2): the “Emax (% I)” value at CFR1R receptor amounted to 66 % I. The same molecule returned an EC50 at human CRF2a receptor of 0.07 nM.
For the molecule `CC[C@H](NC(=O)[C@H](CC(N)=O)NC(=O)[C@@H](NC(=O)[C@H](CCC(=O)O)NC(=O)[C@H](C)NC(=O)[C@H](CCC(N)=O)NC(=O)[C@H](CCC(=O)O)NC(=O)[C@H](CCCNC(=N)N)NC(=O)[C@H](CCC(N)=O)NC(=O)[C@H](CCCCN)NC(=O)[C@H](CCCCN)NC(=O)[C@H](CCC(N)=O)NC(=O)[C@H](CCCCN)NC(=O)[C@H](CCC(=O)O)NC(=O)[C@H](CCC(N)=O)NC(=O)[C@H](CCC(=O)O)NC(=O)[C@H](CC(C)C)NC(=O)[C@H](CC(C)C)NC(=O)[C@@H](NC(=O)[C@H](CCCCN)NC(=O)[C@H](CCCCNC(=O)COCCOCCNC(=O)COCCOCCNC(=O)CC[C@H](NC(=O)CCCCCCCCCCCCCCCCC(=O)O)C(=O)O)NC(=O)[C@H](CC(C)C)NC(=O)[C@H](CCCCN)NC(=O)[C@@H](NC(=O)[C@@H]1CCCN1C(=O)[C@H](NC(=O)[C@H](CC(=O)O)NC(=O)[C@H](CC(C)C)NC(=O)[C@H](CO)NC(=O)[C@H](CC(C)C)NC(=O)[C@@H](NC(=O)[C@@H](NC)[C@@H](C)CC)C(C)C)C(C)C)[C@@H](C)CC)[C@@H](C)CC)[C@@H](C)O)C(=O)N[C@@H](CCC(N)=O)C(=O)N[C@H](C(=O)N[C@@H](CC(C)C)C(=O)N[C@@H](C)C(=O)N[C@@H](CCC(N)=O)C(=O)N[C@H](C(N)=O)C(C)C)[C@@H](C)CC` [compound 114] (H-[NMeI]VLSLD[dV]PIKLK([AEEA-AEEA-γGlu-C18 diacid])KILLEQEKQKKQREQAETN[Abu]QILAQV-NH2), at CFR1R receptor, the “Emax (% I)” value was determined as 6 % I and the EC50 was more than 250 nM. Besides, the EC50 at human CRF2a receptor was determined as 0.18 nM.
On to `CC[C@H](C)[C@H](NC(C)=O)C(=O)N[C@H](C(=O)N[C@@H](CC(C)C)C(=O)N[C@@H](CO)C(=O)N[C@@H](CC(C)C)C(=O)N[C@@H](CC(=O)O)C(=O)N[C@@H](C(=O)N1CCC[C@H]1C(=O)N[C@H](C(=O)N[C@@H](CCCCN)C(=O)N[C@@H](CC(C)C)C(=O)N[C@@H](CCCCNC(=O)CC[C@H](NC(=O)CCCCCCCCCCCCCCCCC(=O)O)C(=O)O)C(=O)N[C@@H](CCCCN)C(=O)N[C@H](C(=O)N[C@@H](CC(C)C)C(=O)N[C@@H](CC(C)C)C(=O)N[C@@H](CCC(=O)O)C(=O)N[C@@H](CCC(N)=O)C(=O)N[C@@H](CCC(=O)O)C(=O)N[C@@H](CCCCN)C(=O)N[C@@H](CCC(N)=O)C(=O)N[C@@H](CCCCN)C(=O)N[C@@H](CCCCN)C(=O)N[C@@H](CCC(N)=O)C(=O)N[C@@H](CCCNC(=N)N)C(=O)N[C@@H](CCC(=O)O)C(=O)N[C@@H](CCC(N)=O)C(=O)N[C@@H](C)C(=O)N[C@@H](CCC(=O)O)C(=O)N[C@H](C(=O)N[C@@H](CC(N)=O)C(=O)NC1(C(=O)N[C@@H](CCC(N)=O)C(=O)N[C@H](C(=O)N[C@@H](CC(C)C)C(=O)N[C@@H](C)C(=O)N[C@@H](CCC(N)=O)C(=O)N[C@H](C(N)=O)C(C)C)[C@@H](C)CC)CCCCC1)[C@@H](C)O)[C@@H](C)CC)[C@@H](C)CC)C(C)C)C(C)C` [compound 134] (Ac-IVLSLD[dV]PIKLK([γGlu-C18 diacid])KILLEQEKQKKQREQAETN[Ac6c]QILAQV-NH2), for which, on CFR1R receptor, the “Emax (% I)” value is recorded as 10 % I and the EC50 was more than 250 nM. The EC50 on human CRF2a receptor worked out at 0.5 nM.
On the same counts, the results for `CCCCC(=O)N[C@H](C(=O)N[C@@H](CC(C)C)C(=O)N[C@@H](CO)C(=O)N[C@@H](CC(C)C)C(=O)N[C@@H](CC(=O)O)C(=O)N[C@@H](C(=O)N1CCC[C@H]1C(=O)N[C@H](C(=O)N[C@@H](CCCCN)C(=O)N[C@@H](CC(C)C)C(=O)N[C@@H](CCCCNC(=O)CC[C@H](NC(=O)CCCCCCCCCCCCCCC(=O)O)C(=O)O)C(=O)N[C@@H](CCCCN)C(=O)N[C@H](C(=O)N[C@@H](CC(C)C)C(=O)N[C@@H](CC(C)C)C(=O)N[C@@H](CCC(=O)O)C(=O)N[C@@H](CCC(N)=O)C(=O)N[C@@H](CCC(=O)O)C(=O)N[C@@H](CCCCN)C(=O)N[C@@H](CCC(N)=O)C(=O)N[C@@H](CCCCN)C(=O)N[C@@H](CCCCN)C(=O)N[C@@H](CCC(N)=O)C(=O)N[C@@H](CCCNC(=N)N)C(=O)N[C@@H](CCC(=O)O)C(=O)N[C@@H](CCC(N)=O)C(=O)N[C@@H](C)C(=O)N[C@@H](CCC(=O)O)C(=O)N[C@H](C(=O)N[C@@H](CC(N)=O)C(=O)N[C@@H](CCCCN)C(=O)N[C@@H](CCC(N)=O)C(=O)N[C@H](C(=O)N[C@@H](CC(C)C)C(=O)N[C@@H](C)C(=O)N[C@@H](CCC(N)=O)C(=O)N[C@H](C(N)=O)C(C)C)[C@@H](C)CC)[C@@H](C)O)[C@@H](C)CC)[C@@H](C)CC)C(C)C)C(C)C` [compound 37] (Pentanoyl-VLSLD[dV]PIKLK([γGlu-C16 diacid])KILLEQEKQKKQREQAETNKQILAQV-NH2) are 22 % I, more than 250 nM and 0.13 nM.

The values are drawn from patent US20260001928A1 (CORTERIA PHARMACEUTICALS, priority 2022, published 2026).
